± gives the expanded uncertainty stated by the source.
assay: Molar enthalpy of transition or fusion; conditions: Crystal; DSC

Molar enthalpy of transition or fusion [kcal/mol]	SMILES
8.92 ± 0.194	c1ccc(-c2nc(-c3ccccc3)c(-c3ccccc3)[nH]2)cc1 [2,4,5-triphenyl-1H-imidazole]
7.73 ± 0.17	c1ccc(-c2nc[nH]c2-c2ccccc2)cc1 [4,5-diphenylimidazole]
6.1 ± 0.136	c1ccc2cc3ccccc3cc2c1 [anthracene]

SMILES	Molar enthalpy of transition or fusion [kcal/mol]
c1ccc(-c2ncc[nH]2)cc1 [2-phenyl-1H-imidazole]	4.26 ± 0.108

assay: not given; conditions: Crystal; DTA

Triple point temperature [K]	SMILES
550.95 ± 0.7	c1ccc(-c2nc(-c3ccccc3)c(-c3ccccc3)[nH]2)cc1 [2,4,5-triphenyl-1H-imidazole]
504.95 ± 0.7	c1ccc(-c2nc[nH]c2-c2ccccc2)cc1 [4,5-diphenylimidazole]
487.75 ± 0.7	c1ccc2cc3ccccc3cc2c1 [anthracene]

SMILES	Triple point temperature [K]
c1ccc(-c2ncc[nH]2)cc1 [2-phenyl-1H-imidazole]	419.95 ± 0.7
